Where “and” joins values, the source holds several entries; their conditions need not be identical. Identical values can stand only once. Entries after “also recorded” stand apart in the source; their conditions may differ. Like-named read-outs stand apart in the source and are kept apart here.
What was measured:
[1] = literature; cited from earlier work
E. coli PNP = E. coli PNP (Escherichia coli, UniProt P0ABP8); type: biochemical
human PNP = target: T1, human PNP (Homo sapiens, UniProt P00491); experiment: Cleavage of purine analog nucleosides by human PNP (HPLC); type: biochemical; conditions: for Percent of substrate cleaved by Human PNP, 1 mM: substrate 1 mM
T1 sequence (P00491 1-289): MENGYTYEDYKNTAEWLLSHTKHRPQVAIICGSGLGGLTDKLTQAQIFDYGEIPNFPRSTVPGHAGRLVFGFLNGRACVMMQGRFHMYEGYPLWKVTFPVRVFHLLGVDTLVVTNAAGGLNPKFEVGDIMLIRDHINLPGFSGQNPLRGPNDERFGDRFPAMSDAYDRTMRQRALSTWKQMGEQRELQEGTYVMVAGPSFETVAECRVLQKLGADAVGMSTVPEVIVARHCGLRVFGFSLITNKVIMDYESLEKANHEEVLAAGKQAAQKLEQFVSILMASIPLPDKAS

D54-PNP tumors = experiment: E. coli PNP-transduced D54 glioma tumors in nude mice; type: in vivo; conditions: previous studies
Procedure: Female athymic nude mice (nu/nu) were implanted sc with 2×10^7 cells of either D54 parental tumor cells (D54-wt) or D54 tumor cells that had been transduced with the E. coli PNP (D54-PNP). After the tumors had grown to approximately 150 mg, they were treated ip with either vehicle or 67 mg/kg of MeP-dR (IP) once a day for 3 days (days 6, 7 and 8 after implantation). The tumor sizes were measured twice a week after treatment.
A confirmation experiment was set up exactly as described above, except that animals were treated with two doses of MeP-dR (45 and 67 mg/kg) (FIGS. 10 and 11). The results of this experiment were similar (Table V). There were 8 of 10 complete regressions in mice bearing the D54-PNP tumors that were treated with 67 mg/kg of MeP-dR. In 4 mice the tumors subsequently returned and grew. There were still 4 of 10 tumor-free survivors 60 days after the treatment had stopped. […] There were 2 of 10 complete regressions and 3 partial responses. […] The delay in the time required to double twice due to treatment with MeP-dR was 5 to 6 days in the non-transduced tumors and greater than 24 days in transduced tumors. In this experiment, the growth rate of the D54-PNP tumors was considerably slower than it was in the first experiment. There was no change in the growth rate of the D54-wt tumors. The reason for the slow growth rate of the D54-PNP tumors in this experiment is not known. […] (In other words, if a tumor was too small to measure, it was not included in the average size). This means that the overall tumor regressions in the D54 PNP group are actually much more pronounced than they appear in FIGS. 8-11.

D54 glioma tumors = experiment: D54 tumors of mixed wild-type and transduced cells (80 to 20); conditions: in vivo
[2] = tested on: tumor cells transduced with the E. coli PNP; experiment: Killing of PNP-transduced tumor cells in vitro by other prodrugs; type: cell-based
From the text: In addition to MeP-dR, two other prodrugs suitable for E. coli PNP activation in tumor cells can be applied to the methodology of the present invention. These prodrugs are F-araA and 2-F-2′deoxyadenosine. […] As desired, this dose had no effect on control untransduced, tumor cells.

PNP transduced tumors = type: in vivo
[3] = substrate 100 μM, 0.1 unit/ml enzyme, 25° C., 1 hour, stopped by boiling
[4] = 25° C., 1 hour, stopped by boiling
[5] = 100 μM in the presence of 1 mM deoxycytidine

Chain of E. coli PNP (P0ABP8 2-239): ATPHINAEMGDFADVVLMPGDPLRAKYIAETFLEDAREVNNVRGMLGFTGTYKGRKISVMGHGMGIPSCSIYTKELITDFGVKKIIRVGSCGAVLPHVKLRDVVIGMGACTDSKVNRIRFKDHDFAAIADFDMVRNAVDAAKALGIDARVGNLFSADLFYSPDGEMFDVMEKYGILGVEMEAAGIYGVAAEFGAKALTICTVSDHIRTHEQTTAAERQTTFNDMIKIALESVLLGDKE

Molecule: Nc1cc(Cl)c2ncn([C@@H]3O[C@H](CO)[C@@H](O)[C@H]3O)c2n1 [1-deaza-2-amino-6-Cl-purine-riboside, 2-amino-6-chloro-1-deazapurine riboside]
- Toxicity of prodrug relative to its purine analog [1]: much less toxic than their respective purine analogs
- Percent of substrate cleaved by E. coli PNP, 100 μM (E. coli PNP): 62(87)16(23) Percent and 41(86)15(21) Percent
- Percent of substrate cleaved by E. coli PNP, 1 mM (E. coli PNP): 62(87)16(23) Percent and 41(86)15(21) Percent
- Substrate quality for bacterial (E. coli) PNP (E. coli PNP): good substrates
- Substrate quality for mammalian (human) PNP (human PNP; in words): poor substrates
- Percent of substrate cleaved by Human PNP, 100 μM (human PNP; [3]): 0(88) Percent and 0(86) Percent
- Percent of substrate cleaved by Human PNP, 1 mM (human PNP; [4]): 0(52) Percent and 0(47) Percent

Molecule: Nc1nc(F)nc2c1ncn2[C@@H]1O[C@H](CO)[C@@H](O)[C@H]1F [2-F-2′-F-2′-deoxyadenosine]
- Percent of substrate cleaved by E. coli PNP, 100 μM (E. coli PNP): 0(86) Percent
- Percent of substrate cleaved by E. coli PNP, 1 mM (E. coli PNP): 0(21) Percent
- Substrate quality for bacterial (E. coli) PNP (E. coli PNP): poor substrates

Molecule: C[C@H]1O[C@@H](n2cnc3c(N)nc(F)nc32)[C@H](O)[C@@H]1O [2-F-5′-deoxyadenosine, 2-fluoro-5′-deoxyadenosine]
- Substrate quality for bacterial (E. coli) PNP (E. coli PNP): good substrates
- Substrate quality for mammalian (human) PNP (human PNP; in words): poor substrates

Molecule: Nc1ncnc2c1ncn2[C@H]1CC[C@@H](CO)O1 [2′,3′-dideoxy adenosine, 2′,3′-dideoxyadenosine]
- Substrate quality for bacterial (E. coli) PNP (E. coli PNP): poor substrates
- Substrate quality for mammalian (human) PNP (human PNP; in words): poor substrates

Molecule: Nc1ncnc2c1ncn2[C@@H]1O[C@H](CO)C[C@H]1O [3′-deoxy adenosine, 3′-deoxyadenosine]
- Substrate quality for bacterial (E. coli) PNP (E. coli PNP): poor substrates
- Substrate quality for mammalian (human) PNP (human PNP; in words): poor substrates

Molecule: NC[C@H]1O[C@@H](n2cnc3c(N)ncnc32)[C@H](O)[C@@H]1O [5′-amino-5′-deoxyadenosine]
- Substrate quality for bacterial (E. coli) PNP (E. coli PNP): moderate substrates; also recorded: poorly cleaved
- Substrate quality for mammalian (human) PNP (human PNP; in words): not cleaved
- Substrate quality for mammalian (human) PNP (human PNP; in words, listed as 50-amino-50-deoxyadenosine): poor substrates

Molecule: NC(=O)[C@H]1O[C@@H](n2cnc3c(N)ncnc32)[C@H](O)[C@@H]1O [5′-carboxamide of adenosine]
- Substrate quality for bacterial (E. coli) PNP (E. coli PNP): poor substrates
- Percent of substrate cleaved by Human PNP, 100 μM (human PNP): 0(81) Percent and 0(82) Percent
- Substrate quality for mammalian (human) PNP (human PNP): poor substrates

Molecule: Nc1cc2ncn(C3O[C@H](CO)[C@@H](O)[C@H]3O)c2c(=O)[nH]1 (stereo partly shown) [7-ribosyl-3-deazaguanine]
- Toxicity of prodrug relative to its purine analog [1]: much less toxic than their respective purine analogs
- Substrate quality for bacterial (E. coli) PNP (E. coli PNP): good substrates
- Substrate quality for mammalian (human) PNP (human PNP; in words): poor substrates

Molecule: OC[C@H]1OC(n2cnc3ncnc(S)c32)[C@H](O)[C@@H]1O (stereo partly shown) [7-ribosyl-6-mercaptopurine]
- Substrate quality for mammalian (human) PNP (human PNP; in words): poor substrates

Molecule: O=c1[nH]cnc2ncn(C3O[C@H](CO)[C@@H](O)[C@H]3O)c12 (stereo partly shown) [7-ribosyl-hypoxanthine, 7-ribosylhypoxanthine]
- Substrate quality for bacterial (E. coli) PNP (E. coli PNP): moderate to good substrates
- Substrate quality for mammalian (human) PNP (human PNP; in words): moderate to good substrates

Molecule: Nc1nc(F)nc2c1ncn2[C@H]1C[C@H](O)[C@@H](CO)O1 [F-dAdo, 2-fluoro-2′-deoxyadenosine]
- Activity against D54 glioma tumors expressing the E. coli PNP gene (D54-PNP tumors): good activity
- Activity against tumors of wild-type and transduced cells at 80 to 20 (D54 glioma tumors): less active
- Substrate quality for bacterial (E. coli) PNP (E. coli PNP): good substrates
- Substrate quality for mammalian (human) PNP (human PNP; in words): poor substrates
- Killing of PNP-transduced tumor cells in vitro [2]: high level killing
- Effect on control untransduced tumor cells [2, 5]: no effect
- Killing when as few as 1% of tumor cells express the gene [2, 5]: kills cells transduced with the E. coli PNP
- Tolerability in mice (PNP transduced tumors; doses similar to MeP-dR): without toxicity
- Anti-tumor effect on PNP transduced tumors in mice (PNP transduced tumors; mouse, in vivo): strong anti-tumor effects

Molecule: CC1(C)OC2C(C(N)=O)OC(n3cnc4c(N)ncnc43)C2O1 (stereo not shown) [isopropylidine of the 5′-carboxamide of adenosine]
- Substrate quality for bacterial (E. coli) PNP (E. coli PNP): poor substrates
- Percent of substrate cleaved by Human PNP, 100 μM (human PNP): 0(81) Percent and 0(82) Percent
- Substrate quality for mammalian (human) PNP (human PNP): poor substrates

Molecule: Nc1ncnc2c1ncn2C1OC(CO)C(O)C1O (stereo not shown) [xylosyl adenine]
- Percent of substrate cleaved by Human PNP, 100 μM (human PNP; [3]): 0(81) Percent and 0(82) Percent

Molecule: Nc1ncnc2c1ncn2[C@H]1O[C@H](CO)[C@@H](O)[C@H]1O [α-adenosine]
- Substrate quality for bacterial (E. coli) PNP (E. coli PNP): poorly cleaved
- Percent of substrate cleaved by Human PNP, 100 μM (human PNP; # line: assay terminated by filtering and not by boiling): 0(87**) Percent
- Substrate quality for mammalian (human) PNP (human PNP; in words): poor substrates; also recorded: not cleaved
- Percent of substrate cleaved by Human PNP, 100 μM (human PNP; [3]): 0(88) Percent and 0(86) Percent
- Percent of substrate cleaved by Human PNP, 1 mM (human PNP; [4]): 0(50) Percent and 0(47) Percent

Molecule: xylosyl methylpurine [xylosylmethylpurine]
- Percent of substrate cleaved by E. coli PNP, 100 μM (E. coli PNP): 0(86) Percent
- Percent of substrate cleaved by E. coli PNP, 1 mM (E. coli PNP): 0(21) Percent
- Substrate quality for bacterial (E. coli) PNP (E. coli PNP): poor substrates
- Substrate quality for mammalian (human) PNP (human PNP; in words): poor substrates
- Percent of substrate cleaved by Human PNP, 100 μM (human PNP; [3]): 0(88) Percent and 0(86) Percent
- Percent of substrate cleaved by Human PNP, 1 mM (human PNP; [4]): 0(50) Percent and 0(47) Percent

From patent US6958318B2, “Recombinant bacterial cells for delivery of PNP to tumor cells” (The UAB Research Foundation, priority 1993, dated 2005)
